Data on five compounds can be found in patent publication US12544428B2, “Controlled-release CNP agonists with reduced side-effects” (ASCENDIS PHARMA GROWTH DISORDERS A/S, priority 2016, dated 2026).

Data set [1] in a line: Evaluation of cardiovascular effects in the conscious telemetered mouse (subcutaneous administration). To be noted: 800 μg CNP-38 (eq)/kg sc; for MAP: mean ± SD, n = 4. It is filed as in vivo, Crl:CD1(ICR) mice. From the text: The purpose of this study was to evaluate the haemodynamic side effects of 11i at dose level equivalent to a CNP-38 dose level eliciting haemodynamic side effects (decrease in blood pressure) in the telemetered mouse.
Male Crl:CD1(ICR) mice (age range 8-13 weeks and body weight range 27.3-35.6 g at start of dosing) were surgically implanted with a TA11PA-C10 telemetry transmitter (Data Sciences International (DSI)) in the carotid artery. The body of the transmitter was placed subcutaneously in the lateral flank of the mouse. The mice were dosed subcutaneously in a latin square crossover design with at least 72 hours between dosing occasions. Mice were dosed with 1) vehicle (10 mM succinate, 46.0 g/L mannitol, pH 4.00), 2) CNP-38 (800 μg CNP-38/kg, 10 mM succinate, 46.0 g/L mannitol, pH 4.00) or 3) 11i (800 μg CNP-38 eq/kg, 10 mM succinate, 46.0 g/L mannitol, pH 4.00). At least four mice were included at each dose level. Blood pressure (systolic (SAP), diastolic (DAP) and mean (MAP) and heart rate (HR, derived from blood pressure), were recorded using a digital data capture system linked with a DSITM Ponemah data acquisition and analysis system. The capture system allowed recording of the cardiovascular parameters whilst the mice were in individual cages. On the day of each test session the animals were weighed and a predose recording was performed for at least 60 min prior to dosing. Each mouse was returned to the home cage and the cardiovascular parameters were recorded for approximately 48 hours postdose. Blood pressure and HR were reported at the following time points: −30, −20, −10, 5, 15 and 30 min postdose and 1, 2, 6, 12, 18, 24, 30, 36, 42 and 48 hours postdose. Each time point was presented as the average value of five minute's recording prior to the time point. The monitoring period was selected to cover exposure to the test items both prior to and after Tmax.

Data set [2] is described as follows: Pharmacokinetic profile of CNP-38 after subcutaneous single-dose administration to cynomolgus monkeys. It is filed as in vivo. Here is the method:
This study was performed in order to test the pharmacokinetics of CNP-38 after subcutaneous (s.c.) administration in cynomolgus monkeys. […] Blood samples were collected at 5, 10, 15, 30, 45 min and 1, 2, 4, 8 hours upon dose.
Method: Plasma levels of CNP were analysed using a commercially available competitive radioimmuno-assay (RK-012-03, Phoenix Pharmaceuticals, CA). The assay was applied essentially as described by the manufacturer. The assay is based on competitive binding between 125I-labelled CNP (supplied in the kit) and unlabeled CNP (from study sample or calibrants) to an anti-CNP antibody. When the concentration of CNP in the sample increases, the amount of 125I-labelled CNP that is able to bind to the antibody decreases. By measuring the amount of 125I-labelled CNP bound as a function of the concentration of peptide, it is possible to construct a calibration curve from which the concentration of peptide in the sample can be determined.
A few changes to the supplied assay protocol were made. These changes included using in-house CNP calibrant and QC samples to secure consistency between assay runs. In order to shorten the duration of the assay, the initial incubation of samples with antibodies was performed at room temperature for 5 hours (instead of 16-24 hours at 4° C.). Due to matrix effects in monkey plasma, the minimal required dilution was set at 1:10, yielding an assay range of 150-1080 pg/mL CNP.

For data set [3] the following is noted: CNP injection, healthy volunteers; cited from earlier work.
In the next data set the target is recombinant human NEP (Homo sapiens, UniProt P08473). The following applies: pH 7.4.
The target of another data set is T1, NPR-B receptor (Mus musculus, UniProt Q6VVW5).
T1 construct: These cells express endogenously the NPR-B receptor on the cell surface; endogenous in cells; host or cells: NIH-3T3 (murine embryo fibroblast)
T1 sequence (Q6VVW5 23-1047 limits assumed): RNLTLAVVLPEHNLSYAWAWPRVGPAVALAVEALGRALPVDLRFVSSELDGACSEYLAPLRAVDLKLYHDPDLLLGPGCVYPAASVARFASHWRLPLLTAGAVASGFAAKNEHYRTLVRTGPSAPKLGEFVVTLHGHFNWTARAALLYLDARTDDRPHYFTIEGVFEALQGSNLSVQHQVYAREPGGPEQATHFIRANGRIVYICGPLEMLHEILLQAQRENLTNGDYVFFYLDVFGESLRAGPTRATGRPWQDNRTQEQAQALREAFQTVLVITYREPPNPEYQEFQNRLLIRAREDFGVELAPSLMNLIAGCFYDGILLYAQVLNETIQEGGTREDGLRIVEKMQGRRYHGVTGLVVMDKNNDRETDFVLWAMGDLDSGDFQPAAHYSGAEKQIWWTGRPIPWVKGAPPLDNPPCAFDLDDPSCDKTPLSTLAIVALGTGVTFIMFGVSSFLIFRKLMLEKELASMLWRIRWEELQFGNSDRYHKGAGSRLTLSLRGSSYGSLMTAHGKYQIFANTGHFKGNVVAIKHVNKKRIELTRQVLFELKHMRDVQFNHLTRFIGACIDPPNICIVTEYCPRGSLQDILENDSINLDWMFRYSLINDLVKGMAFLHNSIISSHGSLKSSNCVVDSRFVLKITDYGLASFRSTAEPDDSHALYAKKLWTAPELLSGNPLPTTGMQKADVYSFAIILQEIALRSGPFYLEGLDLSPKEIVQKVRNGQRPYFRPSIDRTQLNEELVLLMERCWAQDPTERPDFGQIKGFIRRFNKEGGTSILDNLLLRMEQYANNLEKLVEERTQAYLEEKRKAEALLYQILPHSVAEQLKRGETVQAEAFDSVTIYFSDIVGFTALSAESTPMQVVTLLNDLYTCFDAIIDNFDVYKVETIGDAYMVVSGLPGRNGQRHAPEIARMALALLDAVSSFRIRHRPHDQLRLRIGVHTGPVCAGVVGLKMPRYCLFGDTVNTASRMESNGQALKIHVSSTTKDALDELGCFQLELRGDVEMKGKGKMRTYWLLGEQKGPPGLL
Description: Functional cGMP stimulation in NIH-3T3 cells with CNP variants. It is filed as cell-based, murine. The following applies: residual NPR-B activity vs non-PEGylated CNP-38, cGMP. The protocol: As used herein “EC50” with regard to controlled-release CNP agonist and CNP agonist refers to the concentration of controlled-release CNP agonist and CNP agonist with which a half-maximum cGMP production of NPR-B is elicited. NPR-B activity in the form of its EC50 of the controlled-release CNP agonist, of the released CNP agonist and of CNP-22 is measured by cultivating NIH-3T3 (Murine Embryo Fibroblast cell line) cells which express NPR-B on their cell surface, incubating the cells with the controlled-release CNP agonist, the corresponding released CNP agonist or CNP-22, respectively, and determining the intracellular production of the second messenger cGMP with a standard cGMP assay. In particular the assay is performed as follows: • (1) murine NIH-3T3 cells expressing endogenous NPR-B are cultivated in DMEM F-12 medium with 5% FBS and 5 mM glutamine at 37° C. and 5% CO2; • (2) for each assay 50,000 cells are resuspended in Dulbecco's PBS with IBMX and incubated with either the controlled-release CNP agonist, the corresponding released CNP agonist or CNP-22; each in different concentrations; • (3) after incubating for 30 min at 37° C. and 5% CO2, the cells are lysed and cGMP levels are determined; and • (4) generating an EC50 value from the determined cGMP levels.
Functional activity of CNP variants were determined in a cell-based assay with NIH-3T3 cells (Murine Embryo Fibroblast cell line). These cells express endogenously the NPR-B receptor on the cell surface. Stimulation of the NPR-B receptor with CNP leads to intracellular production of the second messenger cGMP which is detected with a commercially available cGMP assay. NIH-3T3 cells were routinely cultured in DMEM F-12 medium with 5% FBS and 5 mM glutamine at 37° C. and 5% CO2. For each assay, 50,000 cells were resuspended in stimulation buffer (Dulbecco's PBS with IBMX) and incubated with the CNP variants in different concentrations. CNP (dilutions were made in PBS with 0.2% BSA). After incubation of 30 min at 37° C. and 5% CO2, the cells were lyzed and cGMP levels were determined with a commercially available cGMP TR-FRET assay (Cisbio, cGMP kit, Cat. No. 62GM2PEB). PEGylated CNP variants were always characterized in comparison with the non-PEGylated version in the same experiment batch. If possible, evaluation of the residual activity was done via the relative EC50-parameter of the resulting dose-response curve (restricted model with common slope).
11i was incubated under physiological conditions (1 mg CNP-38 eq/mL), as described in Example 20. After 7 d, released CNP-38 was isolated by RP-HPLC and analyzed for bioactivity as described in Example 21.

In another data set the target is T2, NPR-C (Homo sapiens, UniProt P17342).
T2 construct: expressed in transfected cells; host or cells: Hek293, lentiviral transduction, CMV promoter, puromycin selection
T2 sequence (P17342 27-541): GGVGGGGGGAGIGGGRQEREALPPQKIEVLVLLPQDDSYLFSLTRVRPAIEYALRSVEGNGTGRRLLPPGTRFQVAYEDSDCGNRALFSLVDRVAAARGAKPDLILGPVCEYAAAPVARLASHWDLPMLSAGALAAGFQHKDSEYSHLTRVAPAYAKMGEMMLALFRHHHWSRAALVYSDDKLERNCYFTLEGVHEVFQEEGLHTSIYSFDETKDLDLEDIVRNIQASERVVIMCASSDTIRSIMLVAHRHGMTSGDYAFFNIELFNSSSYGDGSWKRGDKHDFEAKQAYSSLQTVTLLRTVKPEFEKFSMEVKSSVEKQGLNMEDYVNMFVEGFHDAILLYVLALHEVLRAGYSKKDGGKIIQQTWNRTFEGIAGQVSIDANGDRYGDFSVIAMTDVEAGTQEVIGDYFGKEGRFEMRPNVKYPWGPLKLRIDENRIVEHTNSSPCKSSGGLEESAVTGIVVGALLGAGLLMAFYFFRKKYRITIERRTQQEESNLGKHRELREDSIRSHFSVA
Description: NPR-C affinity assay. The following applies: residual NPR-C affinity, NPR-C expressing Hek293 cells, competition with fluorescein-labelled CNP 27d. The data set is classed as binding.

Usually half-life stands for how long it takes for the measured level to halve.

Sequence of recombinant human NEP (P08473 whole entry): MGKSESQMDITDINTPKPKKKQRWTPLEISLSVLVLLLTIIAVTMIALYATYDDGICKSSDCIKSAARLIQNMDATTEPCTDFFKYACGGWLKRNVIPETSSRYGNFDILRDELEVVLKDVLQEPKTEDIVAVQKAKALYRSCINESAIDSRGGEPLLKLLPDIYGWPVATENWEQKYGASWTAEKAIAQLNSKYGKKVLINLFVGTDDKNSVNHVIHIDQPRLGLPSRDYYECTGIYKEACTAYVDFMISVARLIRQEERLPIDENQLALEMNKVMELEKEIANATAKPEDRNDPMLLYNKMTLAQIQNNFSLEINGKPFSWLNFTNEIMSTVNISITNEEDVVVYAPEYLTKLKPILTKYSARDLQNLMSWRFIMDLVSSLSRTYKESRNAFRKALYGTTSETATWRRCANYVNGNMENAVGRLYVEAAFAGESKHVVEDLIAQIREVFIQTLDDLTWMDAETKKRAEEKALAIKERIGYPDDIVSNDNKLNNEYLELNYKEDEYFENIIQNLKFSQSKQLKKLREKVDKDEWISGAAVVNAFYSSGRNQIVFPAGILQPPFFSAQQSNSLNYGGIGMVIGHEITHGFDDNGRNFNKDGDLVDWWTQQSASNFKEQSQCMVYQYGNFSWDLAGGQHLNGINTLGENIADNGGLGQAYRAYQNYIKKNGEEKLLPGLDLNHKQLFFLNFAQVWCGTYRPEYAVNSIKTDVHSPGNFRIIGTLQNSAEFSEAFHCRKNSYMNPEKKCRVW
Method for recombinant human NEP: In order to determine the in vitro stability of various CNP variants including different peptide chain lengths and PEGylations using different PEGylation sites and PEG molecules in the presence of Neutral Endopeptidase (NEP), a NEP digest assay was established. This assay monitored the decrease of the non-digested CNP variant (normalized with the internal standard PFP) over time in reference to the t0-time point.
In detail, recombinant human NEP (2.5 μg/mL final concentration) and the standard pentafluorophenol (PFP; 40 μg/mL final concentration) were added to the CNP variant (100 μg CNP equivalents/mL) in digest buffer (50 mM Tris-HCl, pH 7.4, 10 mM NaCl). The solution was incubated at 37° C. and 500 rpm for up to 4 days. Samples were taken at different time intervals. The reaction was stopped by a combined reduction and heat denaturation adding TCEP (tris(2-carboxyethyl)phosphine; 25 mM final concentration) and incubating the mixture at 95° C., 500 rpm for 5 minutes. The resulting reaction products were assigned using HPLC-MS. The half life of each CNP variant was calculated via the ratio change in the HPLC-UV peak areas of CNP and PFP over time.

Regarding `CC[C@H](C)[C@@H]1NC(=O)[C@H](CCCNC(=N)N)NC(=O)[C@H](CC(=O)O)NC(=O)[C@H](CC(C)C)NC(=O)[C@H](CCCCN)NC(=O)[C@H](CC(C)C)NC(=O)CNC(=O)[C@H](Cc2ccccc2)NC(=O)[C@@H](NC(=O)CNC(=O)[C@H](CCCCN)NC(=O)[C@H](CO)NC(=O)[C@H](CC(C)C)NC(=O)CNC(=O)[C@H](CCCCN)NC(=O)[C@H](CCCCN)NC(=O)[C@H](CC(N)=O)NC(=O)[C@H](C)NC(=O)CNC(=O)[C@H](CCCCN)NC(=O)[C@H](Cc2ccc(O)cc2)NC(=O)[C@H](CCCCN)NC(=O)[C@H](CCCNC(=N)N)NC(=O)[C@H](C)NC(=O)[C@H](CC(N)=O)NC(=O)[C@@H]2CCCN2C(=O)[C@H](Cc2c[nH]cn2)NC(=O)[C@H](CCC(=O)O)NC(=O)[C@H](CCC(N)=O)NC(=O)[C@@H](N)CC(C)C)CSSC[C@@H](C(=O)O)NC(=O)CNC(=O)[C@H](CC(C)C)NC(=O)CNC(=O)[C@H](CO)NC(=O)[C@H](CCSC)NC(=O)[C@H](CO)NC(=O)CNC1=O` [CNP-38, reference compound], the HR entry in data set [1] is “not impacted”. The “MAP versus vehicle at the remaining ten time points” value in data set [1] (1 to 48 hours postdose) is recorded as “no difference in MAP”. For the same compound, the “change in MAP compared to predose” value in data set [1] (5, 15 and 30 min post dose, CNP-38: 3 of 4 animals) is on record as “significant decrease in MAP”. For the same compound, the MAP in data set [1] (5 min post dose) is 102.0 ± 7.5 mmHg; in data set [1] (15 min post dose), 89.5 ± 29.4 mmHg; in data set [1] (30 min post dose), 99.5 ± 25.2 mmHg; in data set [1] (predose), 106.8 ± 13.4 mmHg. Further, the “Half-life (mean)” value in data set [2] (cynomolgus monkey, in vivo, sc, 40 ug/kg) was 6.6 min. In addition, the half-life in data set [2] (male, cynomolgus monkey, in vivo, sc, 40 ug/kg) was approximately 7 min. For the same compound, in data set [2] (single s.c. 40 μg/kg), the tolerability result was “well tolerated”.

As for “CNP: natriuretic peptide CNP injected in healthy volunteers (Igaki et al.)”, in data set [3], the heart rate result is “significant increase in heart rate”; the “systolic and diastolic blood pressure” value was “transient but significant decrease in both systolic and diastolic blood pressure”.

In the case of “Permanent Lys16 CNP-34 PEG 5 kDa Conjugate [Compound 17e]”, the half-life at recombinant human NEP was 54.2 h.

Take “Permanent Lys22 CNP-34 PEG 5 kDa Conjugate [Compound 18e]”: the half-life at recombinant human NEP is 38.9 h.

As to “Permanent Lys26 CNP-38 PEG 5 kDa Conjugate [Compound 19e]”, the “EC50 compound/EC50 CNP-38” value on NPR-B receptor was more than 100. Further, the “IC50 of PEGylated CNP-38/IC50 CNP-38” value at NPR-C worked out at 1.1. Further, the half-life at recombinant human NEP was 62.8 h.
